Patent US20250235547A1, “ANTIBODY-DRUG CONJUGATE” (UBE Corporation, priority 2022, published 2025)
Numbered stars: 1 amine (or outer) side, 2 acyl side, 3 side chain; on linkers, the order of the positions; unused ones are H or OH. Square brackets hold non-standard residues; d marks the D form. Peptide text beside a SMILES is read from it. * marks the point of attachment. X4 = COC(=O)C1OC(O[C@@H](c2ccccc2)[C@@H](C)N*)C(OC(C)=O)C(OC(C)=O)C1OC(C)=O; Dolaproine = CO[C@@H]([C@@H]1CCCN1)[C@@H](C)C(=O)O; Hexanoyl(6-maleimido) = O=C1C=CC(=O)N1CCCCCC(=O)*; Propanoyl(3-maleimido) = O=C1C=CC(=O)N1CCC(=O)*; Dil = CC[C@H](C)[C@H](NC)[C@@H](CC(=O)O)OC; X3 = C[C@@H](N*)[C@@H](OP(=O)(O)O)c1ccccc1; PABC = O=C(OCc1ccc(N[*:1])cc1)[*:2]; X1 = C[C@@H](N*)[C@@H](O)c1ccccc1; hSer(lactone) = O=C1OCC[C@@H]1N*; Cit = NC(=O)NCCC[C@H](N)C(=O)O; PEG4 = NCCOCCOCCOCCOCCC(=O)O; NMeV = CN[C@H](C(=O)O)C(C)C

System: not listed separately
Test: Retention time in HPLC of reactive precursor (index of hydrophilicity)
Assay type: physicochemical
Conditions: BEH C18, 0.1% formic acid water/acetonitrile gradient, 40° C.
Procedure: As an index of hydrophilicity of the reactive precursor (Compound (III)), the retention time (RT) in HPLC analysis was measured, and compared.

Question: Which “Retention time in HPLC measurement” value does the source give for CC[C@H](C)[C@@H]([C@@H](CC(=O)N1CCC[C@H]1C(OC)[C@@H](C)C(=O)N[C@H](C)[C@@H](O)c1ccccc1)OC)N(C)C(=O)[C@@H](NC(=O)[C@H](C(C)C)N(C)C(=O)OCc1ccc(NC(=O)[C@H](CCCNC(N)=O)NC(=O)[C@@H](NC(=O)[C@H](CC(=O)NC2CCOC2=O)NC(=O)[C@H](CC(=O)N[C@H]2CCOC2=O)NC(=O)[C@H](CC(=O)N[C@H]2CCOC2=O)NC(=O)[C@H](CC(=O)N[C@H]2CCOC2=O)NC(=O)[C@H](CC(=O)NC2CCOC2=O)NC(=O)CCOCCOCCOCCOCCNC(=O)CCN2C(=O)C=CC2=O)C(C)C)cc1)C(C)C (stereo in doubt) [Reference Example 6] here?
Answer: 1.09 min

Question: With CC[C@H](C)[C@@H]([C@@H](CC(=O)N1CCC[C@H]1[C@H](OC)[C@@H](C)C(=O)N[C@H](C)[C@@H](O)c1ccccc1)OC)N(C)C(=O)[C@@H](NC(=O)[C@H](C(C)C)N(C)C(=O)OCc1ccc(NC(=O)[C@H](CCCNC(N)=O)NC(=O)[C@@H](NC(=O)CCCCCN2C(=O)C=CC2=O)C(C)C)cc1)C(C)C [MC-Val-Cit-PAB-MMAE, reference compound] ({Hexanoyl(6-maleimido)}-V[Cit][PABC][NMeV]V[Dil][Dolaproine]-X1) as the molecule, how does the “Retention time in HPLC measurement” value read?
Answer: 1.24 min

Question: For C=C1C[C@@H]2CC[C@@]34C[C@H]5O[C@H]6[C@@H](O3)[C@H]3O[C@H](CC[C@@H]3O[C@H]6[C@H]5O4)CC(=O)C[C@@H]3[C@@H](OC)[C@@H](C[C@H](O)CNC(=O)OCc4ccc(NC(=O)[C@H](CCCNC(N)=O)NC(=O)[C@@H](NC(=O)CCOCCOCCN5C(=O)C=CC5=O)C(C)C)cc4)O[C@H]3C[C@H]3O[C@@H](CC[C@@H]1O2)C[C@@H](C)C3=C [Mal-PEG2-Val-Cit-PAB-Eribulin, reference compound], which “Retention time in HPLC measurement” value is on record?
Answer: 1.19 min

Question: With CC[C@H](C)[C@@H]([C@@H](CC(=O)N1CCC[C@H]1[C@H](OC)[C@@H](C)C(=O)N[C@H](C)[C@@H](OP(=O)(O)O)c1ccccc1)OC)N(C)C(=O)[C@@H](NC(=O)[C@H](C(C)C)N(C)C(=O)OCc1ccc(NC(=O)[C@H](CCCNC(N)=O)NC(=O)[C@@H](NC(=O)[C@H](CC(=O)N[C@H]2CCOC2=O)NC(=O)CCOCCOCCOCCOCCNC(=O)CCN2C(=O)C=CC2=O)C(C)C)cc1)C(C)C [Reference Example 2] ({Propanoyl(3-maleimido)-PEG4}-D(hSer(lactone))V[Cit][PABC][NMeV]V[Dil][Dolaproine]-X3) as the molecule, how does the “Retention time in HPLC measurement” value read?
Answer: 0.96 min

Question: Which “Retention time in HPLC measurement” value does the source give for CC[C@H](C)[C@@H]([C@@H](CC(=O)N1CCC[C@H]1[C@H](OC)[C@@H](C)C(=O)N[C@H](C)[C@@H](OP(=O)(O)OCc1ccc(NC(=O)[C@H](CCCNC(N)=O)NC(=O)[C@@H](NC(=O)[C@H](CC(=O)N[C@H]2CCOC2=O)NC(=O)CCOCCOCCOCCOCCNC(=O)[C@H](CNC(=O)CCP(=O)(O)O)N2C(=O)C=CC2=O)C(C)C)cc1)c1ccccc1)OC)N(C)C(=O)[C@@H](NC(=O)[C@H](C(C)C)N(C)C)C(C)C [Reference Example 3] here?
Answer: 0.70 min

Question: Which “Retention time in HPLC measurement” value does the source give for C=C1C[C@@H]2CC[C@@]34C[C@H]5O[C@H]6[C@@H](O3)[C@H]3O[C@H](CC[C@@H]3O[C@H]6[C@H]5O4)CC(=O)C[C@@H]3[C@@H](OC)[C@@H](C[C@@H](CCNC(=O)OCc4ccc(NC(=O)[C@H](CCCNC(N)=O)NC(=O)[C@@H](NC(=O)[C@H](CC(=O)N[C@H]5CCOC5=O)NC(=O)CCOCCOCCOCCOCCNC(=O)[C@H](CNC(=O)CCP(=O)(O)O)N5C(=O)C=CC5=O)C(C)C)cc4)OP(=O)(O)O)O[C@H]3C[C@H]3O[C@@H](CC[C@@H]1O2)C[C@@H](C)C3=C [Reference Example 26] here?
Answer: 0.91 min

Molecular target: T1, porcine tubulin (Sus scrofa, UniProt P02550+P02554)
T1 construct: purchased Cytoskeleton, Inc. BK011P
T1 sequence (P02554 whole entry): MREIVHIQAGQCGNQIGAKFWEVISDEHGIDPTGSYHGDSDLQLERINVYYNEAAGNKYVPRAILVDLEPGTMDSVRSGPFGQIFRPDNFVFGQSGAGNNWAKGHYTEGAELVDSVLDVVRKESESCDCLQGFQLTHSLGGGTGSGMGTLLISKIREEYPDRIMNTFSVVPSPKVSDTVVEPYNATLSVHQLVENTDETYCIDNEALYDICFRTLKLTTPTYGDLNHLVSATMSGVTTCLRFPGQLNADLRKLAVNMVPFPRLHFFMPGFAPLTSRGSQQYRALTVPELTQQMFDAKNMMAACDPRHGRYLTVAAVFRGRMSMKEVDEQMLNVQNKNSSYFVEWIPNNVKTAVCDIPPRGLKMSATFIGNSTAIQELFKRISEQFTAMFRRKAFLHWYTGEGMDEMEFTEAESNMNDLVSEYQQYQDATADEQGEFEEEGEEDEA
T1 sequence (P02550 whole entry): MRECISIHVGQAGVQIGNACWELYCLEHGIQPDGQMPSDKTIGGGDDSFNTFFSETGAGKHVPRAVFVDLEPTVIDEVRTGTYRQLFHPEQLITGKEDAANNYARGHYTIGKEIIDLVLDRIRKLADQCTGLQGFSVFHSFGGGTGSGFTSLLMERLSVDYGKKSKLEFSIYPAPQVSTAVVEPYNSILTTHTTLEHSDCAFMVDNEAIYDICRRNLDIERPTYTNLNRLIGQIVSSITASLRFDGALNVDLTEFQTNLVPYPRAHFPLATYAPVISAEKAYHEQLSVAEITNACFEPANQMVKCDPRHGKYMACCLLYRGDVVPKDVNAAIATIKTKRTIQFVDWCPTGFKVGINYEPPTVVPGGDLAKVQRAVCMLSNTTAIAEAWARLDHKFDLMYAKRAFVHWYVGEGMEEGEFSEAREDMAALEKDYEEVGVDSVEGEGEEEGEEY
Test: Tubulin polymerization inhibition test
Assay type: biochemical
Conditions: fluorescence, 37° C., 60 minutes
Procedure: For measuring the tubulin polymerization inhibitory action, Tubulin Polymerization Assay Kit (manufactured by Cytoskeleton, Inc., BK011P) was used. A PIPES buffer containing porcine tubulin, GTP, MgCl2, EGTA, Glycerol, and a fluorescent reporter was prepared under ice-cooling as a reaction solution. The reaction solution was ice-cooled until it was used. A test compound solution was prepared by an aqueous solution containing 1.5% DMSO, and added to a 96 well plate (manufactured by Corning Inc., 3686) at 5 μL/well. The reaction solution was added thereto at 50 μL/well, the plate was placed in a microplate reader (FlexStation 3, manufactured by Molecular Device, LLC) in which the internal temperature was set to 37° C. in advance, and the fluorescence intensity measurement (excitation wavelength: 360 nm, detection wavelength: 420 nm) of each well was started. The fluorescence intensity was measured once every minute, and the measurement was continued for 60 minutes.
The tubulin polymerization inhibition rate (%) was calculated by the following equation.
Amount of fluorescence intensity increase: (average fluorescence intensity after 51 to 60 minutes from measurement start)−(average fluorescence intensity after 1 to 6 minutes from measurement start)

Question: For CC[C@H](C)[C@@H]([C@@H](CC(=O)N1CCC[C@H]1[C@H](OC)[C@@H](C)C(=O)N[C@H](C)[C@@H](O)c1ccccc1)OC)N(C)C(=O)[C@@H](NC(=O)[C@H](C(C)C)N(C)Cc1cc([N+](=O)[O-])ccc1F)C(C)C [Example U-008], which IC50 is on record?
Answer: ≤ 3 µM

Question: Which IC50 does the source give for CC[C@H](C)[C@@H]([C@@H](CC(=O)N1CCC[C@H]1[C@H](OC)[C@@H](C)C(=O)N[C@H](C)[C@@H](OC1OC(C(=O)OC)C(OC(C)=O)C(OC(C)=O)C1OC(C)=O)c1ccccc1)OC)N(C)C(=O)[C@@H](NC(=O)[C@@H](NC)C(C)C)C(C)C (some centres unmarked) [Example U-014] (H-[NMeV]V[Dil][Dolaproine]-X4) here?
Answer: ≤ 3 µM
